Data published in ChEMBL document CHEMBL1821618, “Characteristic of alkylated chalcones from Angelica keiskei on influenza virus neuraminidase inhibition” (Bioorg Med Chem Lett, 2011).

Key:
[1] = target: Neuraminidase (Influenza A virus (strain A/Brevig Mission/1/1918 H1N1) (Influenza Avirus (strain A/South Carolina/1/1918 H1N1)), UniProt Q9IGQ6); test: Inhibition of Influenza A virus (A/Brevig Mission/1/1918(H1N1)) recombinant neuraminidase using 4-methylumbelliferyl-alpha-D-N-acetylneuraminic acid sodium salt hydrate solution substrate by ELISA
[2] = target: Neuraminidase (Influenza A virus (strain A/Brevig Mission/1/1918 H1N1) (Influenza Avirus (strain A/South Carolina/1/1918 H1N1)), UniProt Q9IGQ6); test: Noncompetitive inhibition of Influenza A virus (A/Brevig Mission/1/1918(H1N1)) recombinant neuraminidase using 4-methylumbelliferyl-alpha-D-N-acetylneuraminic acid sodium salt hydrate solution substrate by double reciprocal Lineweaver-Burk plot and dixon plot analysis

Neuraminidase (Influenza A virus (strain A/Brevig Mission/1/1918 H1N1) (Influenza Avirus (strain A/South Carolina/1/1918 H1N1)), UniProt Q9IGQ6), sequence (Q9IGQ6 whole entry): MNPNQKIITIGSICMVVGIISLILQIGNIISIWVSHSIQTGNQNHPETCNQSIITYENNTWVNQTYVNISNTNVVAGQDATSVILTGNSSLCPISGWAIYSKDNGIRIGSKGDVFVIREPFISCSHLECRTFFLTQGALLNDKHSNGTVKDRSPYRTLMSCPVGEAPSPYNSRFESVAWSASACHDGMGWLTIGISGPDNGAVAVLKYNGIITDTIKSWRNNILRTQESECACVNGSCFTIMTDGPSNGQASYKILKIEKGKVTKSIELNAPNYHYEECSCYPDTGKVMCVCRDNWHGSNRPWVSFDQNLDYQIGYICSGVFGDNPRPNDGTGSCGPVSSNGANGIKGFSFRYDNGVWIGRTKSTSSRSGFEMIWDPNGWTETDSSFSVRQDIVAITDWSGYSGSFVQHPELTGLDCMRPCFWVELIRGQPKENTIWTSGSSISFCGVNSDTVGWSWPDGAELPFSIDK

SMILES | IC50 [1] | Ki [2]
C=C(C)C(O)Cc1c(OC)ccc(C(=O)/C=C/c2ccc(O)cc2)c1O (configuration not stated) [XANTHOANGELOL D] | 12.3 µM | 14 µM
C=C(C)C(O)CC/C(C)=C/Cc1c(OC)ccc(C(=O)/C=C/c2ccc(O)cc2)c1O (configuration not stated) [XANTHOANGELOL G] | 24.2 µM | 20 µM
COc1ccc(C(=O)/C=C/c2ccc(O)cc2)c(O)c1CC=C(C)C | 42.1 µM | 50.2 µM
COC(CC/C(C)=C/Cc1c(O)ccc(C(=O)/C=C/c2ccc(O)cc2)c1O)OC [XANTHOKEISTAL A] | 30.9 µM | 33.5 µM
C=C(C)C(O)CC/C(C)=C/Cc1c(O)ccc(C(=O)/C=C/c2ccc(O)cc2)c1O (configuration not stated) [XANTHOANGELOL B] | 22.5 µM | 20.7 µM
COc1ccc(C(=O)/C=C/c2ccc(O)cc2)c(O)c1C/C=C(\C)CCC=C(C)C [XANTHOANGELOL F] | 85.9 µM | 123 µM
